We go through one substance from PMC5610524, “Tools for the Individualized Therapy of Teicoplanin for Neonates and Children” (Antimicrobial Agents and Chemotherapy, 2017).

Series [1] is described as follows: BestDose multiple-model Bayesian adaptive dose optimization software, individual simulations for an infant and an older child. Also noted: species or system human. Conditions: trapezoidal approximation to hourly software predictions. The source says:
We incorporated the final population PK model into a teicoplanin multiple-model Bayesian adaptive dosing controller (the software “cartridge”). The controller is based on the concepts and software (BestDose) developed by the University of Southern California Laboratory for Applied Pharmacokinetics and Bioinformatics (LAPKB) (http://www.lapk.org) ([35], [36]). The teicoplanin cartridge included the final structural model equations relating input (dosing information) to output (concentrations of the drug in plasma) and the discrete joint probability distribution of the values of the equation variables (PK parameters) in the population, consisting of a discrete number of support points and their associated probabilities (the Bayesian prior). […]
The dose optimization software was tested by comparing the estimated predicted PK profile plot against the observations, as well as by the linear regression of the observed-versus-predicted concentrations for each individual patient. From the predicted concentrations based on the median individual Bayesian posterior parameter distribution, we calculated the bias, which is equal to the mean weighted predicted error (∑ wpe/N), where wpe is (predicted concentration − actual concentration)/(SD for each prediction/observation), N is the number of observations, and the percentage of bias. […]

The nature of series [2]: Nonparametric population PK model (two-compartment, allometric, renal function) fitted to plasma teicoplanin concentrations in neonates, infants and children. It is filed as in vivo, human. The following applies: final model. From the text:
Pharmacokinetic data from 57 children (39 children aged 1 month to 16 years old and 18 neonates with a postmenstrual age [PMA] between 26 and 44 weeks) were available for model building. Patients were prospectively enrolled from two different hospitals in Liverpool (Alder Hey NHS Children's Foundation Trust and Liverpool Women's Hospital) over a 21-month period (April 2013 and January 2015). These PK data have been reported previously in two separate population models ([1], [2]). […] Such an approach avoids the problem of having multiple pharmacokinetic models for the same drug, each with an arbitrarily chosen cutoff value for age or size.
Neonates with a PMA of ≤44 weeks received a loading dose of 16 mg/kg, followed by 8 mg/kg once daily via a 30-min intravenous (i.v.) infusion. Children >1 month old received three loading dosages of 10 mg/kg every 12 h, followed by 10 mg/kg once daily via an i.v. bolus infusion (2 to 5 min), according to the dosages currently recommended by the SPC ([11]). Plasma samples were collected during the first dosage interval and then at steady state (1, 3, 6, and 24 h postdose) on days 3 to 7 of therapy. Neonates weighing <1,000 g contributed two samples per dosing interval because of constraints on sample volume. The duration of the treatment course was at the discretion of the treating physician. All patients received teicoplanin for proven or suspected methicillin-resistant staphylococcal sepsis (due to either coagulase-negative staphylococci [CoNS] or MRSA) and/or central-line-associated bloodstream infection. Demographic variables included weight, height, age in years, PMA in weeks, postnatal age (PNA) in days, serum albumin concentration (in grams per liter), and serum creatinine concentration. The estimated glomerular filtration rate (eGFR) (Schwartz-Haycock) ([28]) was also available for each patient.
Teicoplanin concentrations were measured using a commercially available fluorescence polarization immunoassay (FPIA; Thermo Fisher Scientific, Germany). The limit of quantification (LOQ) was <3.0 mg/liter. The dynamic range was 3 to 100 mg/liter, and overall precision (intra- and interday variability) was <6%.
A PK model was fitted to the data using Pmetrics, version 1.4.2 for R, statistical package 3.2.2, which utilizes the nonparametric adaptive grid (NPAG) algorithm ([29]). The inverse of the estimated assay variance was used to weight the data. Initially, a standard two-compartment model with time-delimited zero-order i.v. input and first-order elimination from the central compartment was developed. The standard model is described by differential equations 1a and 1b below: (1a) dX(1)/dt=R(1)−(Kcp+Cl/V)⋅X(1)+[Kpc⋅X(2)] (1b) dX(2)/dt=Kcp⋅X(1)−Kpc⋅X(2) where X(1) and X(2) represent the amounts of teicoplanin (in milligrams) in the central (c) and peripheral (p) compartments, respectively; R(1) is the rate of infusion of the drug into the central compartment (in milligrams per hour); clearance (Cl) from the central compartment is measured in liters per hour; volume (V) is measured in liters; and the central and peripheral compartments are connected by the first-order rate constants Kcp and Kpc (measured per hour).
In neonates and children, clearance generally scales with size in a nonlinear manner that is best described using a power function. A scaling exponent of 0.75 is most frequently used (i.e., clearance is proportional to weight^0.75). In addition, physiological maturation may also affect clearance, and this is especially important for neonates and young infants ([30], [31]). In the model-building process, we switched from using clearance to using Ke (measured per hour) as the first-order elimination rate constant, where Ke is calculated as Cl/V and is proportional to weight^−0.25. While it is possible to estimate the scaling exponents directly, we chose to fix these values as previously described by others ([24], [30], [31]). […]

teicoplanin: the “Median (range) 24-h AUC along the treatment course” value in series [1] (Patient 1 (infant, 5 months, 6.3 kg, eGFR 63.84 ml/min/1.73 m^2)) is given as 493.8 (355.8–574) mg · h/liter. In addition, the “Median (range) 24-h AUC along the treatment course” value in series [1] (Patient 2 (child, 16.3 kg, eGFR 108.41 ml/min/1.73 m^2)) is reported as 368.1 (318.9–388.4) mg · h/liter. Also, the “V01, weight-standardized volume of the central compartment (V0), mean” value in series [2] (n = 57, occasion 1 (<96 h), Volume = V0 · (wt/70), population mean) was 22.636 L. Moreover, the “V01, weight-standardized volume of the central compartment (V0), median” value in series [2] (n = 57, occasion 1 (<96 h), Volume = V0 · (wt/70), population median) stood at 19.52 L. In addition, in series [2] (n = 57, occasion 1 (<96 h), standardized to 70 kg, Ke = Ke0 · (wt/70)^−0.25 · Renal, population median), the “Ke01, weight-standardized elimination rate constant (Ke0), median” value was 0.03 h⁻¹. In addition, in series [2] (n = 57, occasion 2 (samples ≥96 h), standardized to 70 kg, population mean), the “Ke02, weight-standardized elimination rate constant (Ke0), mean” value was determined as 0.036 h⁻¹. Moreover, the “V02, weight-standardized volume of the central compartment (V0), mean” value in series [2] (n = 57, occasion 2 (≥96 h), Volume = V0 · (wt/70), population mean) amounted to 22.472 L. Besides, in series [2] (n = 57, occasion 2 (≥96 h), Volume = V0 · (wt/70), population median), the “V02, weight-standardized volume of the central compartment (V0), median” value worked out at 22.7 L. Also, in series [2] (n = 57, occasion 2 (≥96 h), standardized to 70 kg, population median), the “Ke02, weight-standardized elimination rate constant (Ke0), median” value was 0.025 h⁻¹. For the same substance, in series [2] (n = 57, patients >3 months old, population mean), the “pw, power function (Renal = eGFR^pw), mean” value amounted to 0.125. Also, the “pw, power function (Renal = eGFR^pw), median” value in series [2] (n = 57, patients >3 months old, population median) is given as 0.07. Moreover, in series [2] (n = 57, population mean), the “Kcp, first-order intercompartmental rate constant, mean” value is 0.490 h⁻¹ and the “Kpc, first-order intercompartmental rate constant, mean” value was 0.214 h⁻¹. In addition, in series [2] (n = 57, population median), the “Kcp, first-order intercompartmental rate constant, median” value was determined as 0.23 h⁻¹ and the “Kpc, first-order intercompartmental rate constant, median” value came out at 0.12 h⁻¹. Also, in series [2] (n = 57 neonates and children, i.v., occasion 1 (samples <96 h after treatment initiation), standardized to 70 kg, Ke = Ke0 · (wt/70)^−0.25 · Renal, population mean), the “Ke01, weight-standardized elimination rate constant (Ke0), mean” value came out at 0.038 h⁻¹.
